According to patent US4085224A, “Method of increasing feed utilization” (Eli Lilly and Company, priority 1976, dated 1978):

Legend:
[1] = tested on: rumen fluid; assay: in vitro rumen fluid volatile fatty acid production; set-up: species or system steer; details: 1 ppm in rumen fluid, 16 hours at 38° C.
From the text: As discussed hereinabove, efficiency of carbohydrate utilization in ruminants is increased by treatments which stimulate the amimal's rumen flora to produce propionate compounds rather than acetate or butyrate compounds. The efficiency of feed use can be monitored by observing the production and concentration of propionate compounds in the rumen, using the following methods:
Remen fluid is obtained from a steer with a surgically-installed fistula opening into the rumen. The steer is maintained on a high-grain ration. A sample of rumen fluid is strained through four layers of cheesecloth, and the filtrate is collected. The particulate matter retained by the cheesecloth is resuspended in enough physiological buffer to return it to the original volume of the rumen fluid, and this suspension is strained again. The buffer used has the following composition:
The two filtrates are combined and allowed to stand until particulate matter separates to the top. The clear layer is separated, diluted with the same buffer (1:1) and then adjusted to between pH 6.8 to 7.0.
The diluted rumen fluid (10 ml) is placed in a 25-ml flask with 40 mg of the above-described feed, an additional 1 mg of soybean protein, and the compound to be tested. Four replicate flasks are used per treatment. Two sets of four control flasks each are also employed. A zero-time control and an incubated 16-hour control are used. All test flasks are incubated for 16 hours at 38° C. […] The samples are allowed to settle, and the supernatants are analyzed by gas chromatography for propionate, acetate, and butyrate compounds.

[2] = tested on: Staphylococcus aureus (H-Heatley) NRRL B-314; assay: turbidometric assay on semiautomated system (Autoturb), relative gram-positive activity; type: cell-based; details: relative to A-28086 factor A (standard); nutrient broth pH 7, four hours at 37° C.
Protocol: The C2 -C6 -acyl ester derivatives of A-28086 factor A also have antibacterial and antifungal activity. In one aspect, these derivatives have increased gram-positive activity. The relative gram-positive activities of certain of these derivatives were compared with the activity of factor A. The compounds were tested by turbidometric assay on a semiautomated system (Autoturb® microbiological assay system, Elanco) described by N. R. Kuzel and F. W. Kavanaugh in J. Pharmaceut. Sci. 60 (5), 764 and 767 (1971). In testing the A-28086 antibiotics, the following test parameters were used: Staphylococcus aureus (H-Heatley) NRRL B-314 in a nutrient broth medium (pH 7), incubated for four hours at 37° C. Test samples and the standard were dissolved in methanol-water (10:90). The standard, A-28086 factor A, was presented to the Autoturb® carrousel at concentrations of 2, 3, 4, and 5 mcg/ml. Test compounds were diluted to contain approximately 3 or 4 mcg of activity per ml, as presented to the carrousel. The relative activities of test compounds, as compared to that of the standard, are given below: […]

Compound | Ratio of Treated to Control, Molar % acetate [1] | Ratio of Treated to Control, Molar % butyrate [1] | Ratio of Treated to Control, Molar % propionate [1] | Ratio of Treated to Control, Total VFA mM/l [1] | Relative G+ Activity [2]
CCCC(=O)OC1C=CC2(OC(C(CC)C(=O)C(C)C(O)C(C)C3OC(C(CC)C(=O)O)C(C)CC3C)C(C)CC2C)OC12CCC(C)(C1CCC(O)(CC)C(C)O1)O2 (stereo not shown) | 0.91 | 0.81 | 1.56 | 1.19 | 8
CCCCCC(=O)OC1C=CC2(OC(C(CC)C(=O)C(C)C(O)C(C)C3OC(C(CC)C(=O)O)C(C)CC3C)C(C)CC2C)OC12CCC(C)(C1CCC(O)(CC)C(C)O1)O2 (stereo not shown) | 0.86 | 0.97 | 1.57 | 0.99 | 20
CCC(C(=O)O)C1OC(C(C)C(O)C(C)C(=O)C(CC)C2OC3(C=CC(OC(C)=O)C4(CCC(C)(C5CCC(O)(CC)C(C)O5)O4)O3)C(C)CC2C)C(C)CC1C (stereo not shown) [A-28086 factor A acetyl ester derivative] | 0.79 | 0.76 | 2.04 | 1.04 | 2.5
CCCCC(=O)OC1C=CC2(OC(C(CC)C(=O)C(C)C(O)C(C)C3OC(C(CC)C(=O)O)C(C)CC3C)C(C)CC2C)OC12CCC(C)(C1CCC(O)(CC)C(C)O1)O2 (stereo not shown) | 0.92 | 0.79 | 1.55 | 1.18 | 14
CCC(=O)OC1C=CC2(OC(C(CC)C(=O)C(C)C(O)C(C)C3OC(C(CC)C(=O)O)C(C)CC3C)C(C)CC2C)OC12CCC(C)(C1CCC(O)(CC)C(C)O1)O2 (stereo not shown) | 0.90 | 0.68 | 1.73 | 1.25 | 7
